Data set [1] addresses T1, FLT3 wild type (Homo sapiens, UniProt P36888).
T1 construct: purchased Reaction Biology Corp. (Kinase HotSpot service)
T1 sequence (P36888 27-993): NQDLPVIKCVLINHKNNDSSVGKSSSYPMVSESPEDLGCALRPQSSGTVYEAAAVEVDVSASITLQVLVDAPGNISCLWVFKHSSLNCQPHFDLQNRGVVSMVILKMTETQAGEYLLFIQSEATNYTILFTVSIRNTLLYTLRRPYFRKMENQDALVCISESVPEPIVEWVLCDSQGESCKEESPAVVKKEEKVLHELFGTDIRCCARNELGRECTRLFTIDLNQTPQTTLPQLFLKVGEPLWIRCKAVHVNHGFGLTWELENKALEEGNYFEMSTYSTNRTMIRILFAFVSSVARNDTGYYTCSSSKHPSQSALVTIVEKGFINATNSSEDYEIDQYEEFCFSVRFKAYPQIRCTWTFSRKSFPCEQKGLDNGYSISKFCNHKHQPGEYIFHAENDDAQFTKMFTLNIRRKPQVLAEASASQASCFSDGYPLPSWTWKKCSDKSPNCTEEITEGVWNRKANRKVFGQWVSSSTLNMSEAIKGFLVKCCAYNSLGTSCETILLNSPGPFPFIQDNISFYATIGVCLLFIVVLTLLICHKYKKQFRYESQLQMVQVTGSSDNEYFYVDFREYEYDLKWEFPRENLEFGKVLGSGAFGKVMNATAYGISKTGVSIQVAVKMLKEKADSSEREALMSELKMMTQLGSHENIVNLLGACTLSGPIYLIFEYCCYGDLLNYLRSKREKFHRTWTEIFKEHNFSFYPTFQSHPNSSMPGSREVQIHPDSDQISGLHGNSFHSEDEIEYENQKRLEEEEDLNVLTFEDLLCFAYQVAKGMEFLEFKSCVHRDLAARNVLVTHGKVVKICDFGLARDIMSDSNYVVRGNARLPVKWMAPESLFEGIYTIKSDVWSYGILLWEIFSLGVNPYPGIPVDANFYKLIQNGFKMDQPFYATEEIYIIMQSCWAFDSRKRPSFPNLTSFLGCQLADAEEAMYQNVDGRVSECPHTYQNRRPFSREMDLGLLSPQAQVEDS
Description: Kinase HotSpot radiometric kinase assay (Reaction Biology). Format: biochemical.
Description: (§1) Reaction Biology Corp. Kinase HotSpot SM service (www.reactionbiology.com) was used to determine IC50 values for all compounds and kinase profiles. The analysis protocol was as follows: In a final reaction volume of 25 μL, a peptide substrate, [[sequence]], 5 μM, ATP 10 μM, and FLT3(h) (5 to 10 mU) were incubated with 25 mM Tris pH 7.5, 0.02 mM EGTA, 0.66 mg/mL myelin basic protein, 10 mM Mg acetate and [γ-33P-ATP] (a concentration of approximately 500 cpm/pmol was required for specific activity). The reaction was initiated by adding the Mg-ATP mixture. After incubation at room temperature for 40 minutes, the reaction was stopped by adding 5 μL of a 3% phosphoric acid solution. Thereafter, 10 μL of the reactant was spotted on a P30 filter mat and washed three times for 5 minutes in 75 mM phosphoric acid and once in methanol before drying and scintillation counting.

In data set [2] the target is T2, FLT3 (D835Y) (Homo sapiens, UniProt P36888, D835Y).
T2 sequence (P36888 27-993 D835Y): T1 sequence (P36888 27-993) with D809Y
The data set is described as above.
Description: as §1

[3] abbreviates: read-out: FLT3 (D835Y) IC50, Table 1.

Numbering of substitutions follows the chain as printed. Like-named read-outs stand apart in the source and are kept apart here.

The IC50 is the concentration needed to halve the response being measured. As a reminder, the melting point is the temperature of the solid-liquid transition.

`CCN1CCN(c2cc(C(=O)Nc3ccc4[nH]c(-c5ccc6cn[nH]c6c5)nc4c3)cc(C(F)(F)F)c2)CC1(C)C` [Compound 8z, N-(2-(1H-indazol-6-yl)-1H-benzo[di]imidazol-5-yl)-3-(4-ethyl-3,3-dimethylpiperazine-1-yl)-5-(trifluoromethyl)benzamide]: the melting point lay in the range of 153 to 154 °C. For the same compound, in data set [1] (values given in nM, read-out: IC50 FLT3 wild type), the IC50 was found to be 65.9 nM. In addition, in data set [2], the IC50 was around 10 nM.

Regarding `O=C(Nc1ccc2[nH]c(-c3ccc4cn[nH]c4c3)nc2c1)c1ccc(N2CCOCC2)c(C(F)(F)F)c1` [Compound 8f, N-(2-(1H-indazol-6-yl)-1H-benzo[di]imidazol-5-yl)-4-morpholino-3-(trifluoromethyl)benzamide], the melting point is 202 to 204 °C. Besides, the IC50 in data set [1] (Table 1, read-out: FLT3 IC50) was determined as 2510 nM. In data set [2] (setting [3]), the IC50 was found to be 370 nM.

For `O=C(Nc1ccc(Cl)c(Cl)c1)Nc1ccc2[nH]c(-c3ccc4cn[nH]c4c3)nc2c1` [Compound 8m, 1-(2-(1H-indazol-6-yl)-1H-benzo[di]imidazol-5-yl)-3-(3,4-dichlorophenyl)urea], the melting point is 144 to 146 °C. In data set [1] (Table 1, read-out: FLT3 IC50), the IC50 amounted to 3080 nM. In addition, in data set [2], the IC50 was around 1000 nM.

In turn, `CN1CCN(c2cc(C(=O)Nc3ccc4[nH]c(-c5ccc6cn[nH]c6c5)nc4c3)cc(C(F)(F)F)c2)CC1` [Compound 8a, N-(2-(1H-indazol-6-yl)-1H-benzo[di]imidazol-5-yl)-3-(4-methylpiperazin-1-yl)-5-(trifluoromethyl)benzamide] gave a melting point of 228 to 230 °C. Besides, in data set [1] (Table 1, read-out: FLT3 IC50), the IC50 came to 181 nM. Also, the IC50 in data set [2] (setting [3]) was determined as 21 nM.

In turn, `O=C(Nc1ccc2[nH]c(-c3ccc4cn[nH]c4c3)nc2c1)c1cc(N2CCOCC2)cc(C(F)(F)F)c1` [Compound 8d, N-(2-(1H-indazol-6-yl)-1H-benzo[di]imidazol-5-yl)-3-morpholino-5-(trifluoromethyl)benzamide] returned a melting point of 195 to 196 °C. In addition, in data set [1] (Table 1, read-out: FLT3 IC50), the IC50 came out at 1030 nM. The IC50 in data set [2] (setting [3]) was 151 nM.

For the origin of these results see patent US20240270720A1, “INDAZOLE YL BENZIMIDAZOLE DERIVATIVE OR PHARMACEUTICALLY ACCEPTABLE SALT THEREOF, AND USE THEREOF” (INDUSTRY-UNIVERSITY COOPERATION FOUNDATION HANYANG …, priority 2021, published 2024).
